Read-outs that look alike come from different tables or passages of the source.
Columns and labels:
HTB-54 = assay: MTT cytotoxicity assay (NCI) in HTB-54; assay type: cell-based, human; settings: 72 h; for TGI HTB-54: dose that completely inhibits cell growth; for LD50 HTB-54: dose that kills 50% of cells; for GI50: Homo sapiens, HTB-54, dose that inhibits 50% of cell growth, read-out: GI50 HTB-54
Experimental: (§1) In order to investigate the effect of the active compounds in more detail, we examined the activity on proliferation in other cancer cell lines. […] Tests were carried out in the Department of Health Science, Public University of Navarra against a panel of four human tumour cell lines: lung (HTB-54), colon (HT-29), leukaemia (CCRF-CEM) and breast adenocarcinoma (MCF-7). Cytotoxicity assays were performed based on the reactivity of MTT [3-(4,5-dimethylthiazol-2-yl)-2,5-diphenyl-tetrazolium bromide], as described by NCI [39]. […] Doxorubicin was used as a control. As guidance with regard to selectivity, all of the compounds were further examined for toxicity in a mammary gland cell culture derived from non-malignant cells (184B5). Drug concentrations ranged from 0.01 to 100 μM.
(§2) The cytotoxic effects of each substance were tested at five different doses between 0.01 and 100 μM. Each substance was initially dissolved in DMSO at a concentration of 0.1 M, and serial dilutions were prepared using culture medium. The plates with cells from the different lines, to which medium containing the substance under test were added, were incubated for 72 h at 37 °C in a humidified atmosphere containing 5% CO2. European Collection of Cell Cultures (ECACC) or American Type Culture Collection (ATCC) provided human tumour cell lines. Four cell lines were used: one human lymphocytic leukemia (CCRF-CEM) and three human solid tumours, one colon carcinoma (HT-29), one lung carcinoma (HTB-54) and one breast adenocarcinoma (MCF-7). CCRF-CEM, HT-29 and HTB-54 cells were grown in RPMI 1640 medium (Life Technologies, Carlsbad, CA, USA) supplemented with 10% foetal calf serum, 2 mM L-glutamine, 100 units/mL penicillin, 100 μg/mL streptomycin and 10 mM HEPES buffer (pH = 7.4). MCF-7 cells were grown in EMEM medium (Clonetics) supplemented with 10% foetal calf serum, 2 mM L-glutamine, 100 units/mL penicillin and 100 μg/mL streptomycin. 184B5 cells were grown Hams F-12/DMEM (50:50) supplemented as described by Li et al.. Cytotoxicity was then determined by the MTT method. […] Data were obtained from at least three independent experiments performed in quadruplicate.

184B5 = assay: MTT toxicity assay in non-malignant mammary gland cells 184B5; assay type: cell-based; settings: for LD50 184B5 / TGI 184B5: 72 h; for LD50 184B5: non-malignant cells, dose that kills 50% of cells; for TGI 184B5: human
Experimental: as §1, §2

[1] = as above; assay type: cell-based; settings: human
Experimental: as §1, §2

MCF-7 = assay: MTT cytotoxicity assay (NCI) in MCF-7; assay type: cell-based, human; settings: 72 h; for TGI MCF-7: dose that completely inhibits cell growth; for LD50 MCF-7: dose that kills 50% of cells; for GI50: Homo sapiens, MCF7, dose that inhibits 50% of cell growth, read-out: GI50 MCF-7
Experimental: as §1, §2

HT-29 = assay: MTT cytotoxicity assay (NCI) in HT-29; assay type: cell-based, human; settings: 72 h; for TGI HT-29: dose that completely inhibits cell growth; for LD50 HT-29: dose that kills 50% of cells; for GI50: Homo sapiens, HT-29, dose that inhibits 50% of cell growth, read-out: GI50 HT-29
Experimental: as §1, §2

PC-3 cell line = assay: MTT cytotoxicity assay in PC-3; settings: for IC50: Homo sapiens
Experimental: The results are tabulated as IC50 values. All experiments were independently performed at least three times and the values were calculated after 72 hours exposure (drug concentrations of 2, 5, 7 and 10 μM).
PC-3 cells were seeded in 96-well plates (Millipore, Eschborn, Germany) at a density of 5 × 10^3 cells per well. The samples were incubated at 37 °C under 5% CO2 overnight prior to the addition of the compounds. Compounds were diluted in complete medium. After 3 days of incubation, 10 μL MTT solution (5 mg/mL in PBS) was added to the cells in each well and these were stored for an additional 4 h at 37 °C. […] The percentage of viable cells was calculated to obtain IC50-values.
PC-3 are human tumorigenic and metastatic prostate cancer cells and these were obtained from American Type Culture Collection (ATCC, Manassas, VA, USA) (passage 36).

CCRF-CEM = assay: MTT cytotoxicity assay (NCI) in CCRF-CEM; assay type: cell-based, human; settings: 72 h; for TGI CCRF-CEM: dose that completely inhibits cell growth; for LD50 CCRF-CEM: dose that kills 50% of cells; for GI50: Homo sapiens, CCRF-CEM, dose that inhibits 50% of cell growth, read-out: GI50 CCRF-CEM
Experimental: as §1, §2

[2] = PC-3, 72 h, read-out: IC50 PC-3 cell line
[3] = PC-3, read-out: IC50 (cytotoxic activity in PC-3 cell line)

## N#Cc1ccc(C(=O)[Se]CC(=O)O)cc1 [Compound 2, (4-cyanobenzoylselenyl)acetic acid]
HTB-54
  TGI HTB-54: 9.91 µM
  LD50 HTB-54: >100 µM
  GI50: 1.9 µM
184B5
  LD50 184B5: 78.91 µM
  TGI 184B5: 20.14 µM
184B5; LD50 in 184B5 divided by LD50 in MCF-7
  selectivity index (184B5/MCF-7 LD50 ratio): 3.4
[1]
  GI50 at 72 h: 2.29 µM
MCF-7
  TGI MCF-7: 6.54 µM
  LD50 MCF-7: 23.12 µM
  GI50: 2.64 µM
HT-29
  TGI HT-29: 51.95 µM
  LD50 HT-29: >100 µM
  GI50: 8.95 µM
PC-3 cell line; [2]
  IC50: 10 µM
PC-3 cell line; [3]
  IC50: 10 µM
CCRF-CEM
  TGI CCRF-CEM: >100 µM
  LD50 CCRF-CEM: >100 µM
  GI50: > 100 µM

## O=C(O)C[Se]C(=O)c1ccc(C(F)(F)F)cc1 [Compound 3, (4-trifluoromethylbenzoylselenyl)acetic acid]
PC-3 cell line; [2]
  IC50: > 10 µM
PC-3 cell line; [3]
  IC50: > 10 µM

## O=C(O)C[Se]C(=O)c1ccc(Cl)cc1 [Compound 4, (4-chlorobenzoylselenyl)acetic acid]
PC-3 cell line; [2]
  IC50: > 10 µM
PC-3 cell line; [3]
  IC50: > 10 µM

## Cc1ccc(C(=O)[Se]CC(=O)O)cc1 [Compound 5, (4-methylbenzoylselenyl)acetic acid]
PC-3 cell line; [2]
  IC50: > 10 µM
PC-3 cell line; [3]
  IC50: > 10 µM

## CC(C)(C)c1ccc(C(=O)[Se]CC(=O)O)cc1 [Compound 6, (4-tert-butylbenzoyl-selenyl)acetic acid]
PC-3 cell line; [2]
  IC50: > 10 µM
PC-3 cell line; [3]
  IC50: > 10 µM

## O=C(O)C[Se]C(=O)c1ccccc1Cl [Compound 8, (2-chlorobenzoylselenyl)acetic acid]
PC-3 cell line; [2]
  IC50: > 10 µM
PC-3 cell line; [3]
  IC50: > 10 µM

## O=C(O)C[Se]C(=O)c1ccccc1Br [Compound 9, (2-bromobenzoylselenyl)acetic acid]
PC-3 cell line; [2]
  IC50: > 10 µM
PC-3 cell line; [3]
  IC50: > 10 µM

## O=C(O)C[Se]C(=O)c1ccccc1I [Compound 10, (2-iodobenzoylselenyl)acetic acid]
PC-3 cell line; [2]
  IC50: > 10 µM
PC-3 cell line; [3]
  IC50: > 10 µM

## O=C(O)C[Se]C(=O)Cc1ccccc1 [Compound 11, Phenylacetoylselenylacetic acid]
HTB-54
  TGI HTB-54: >100 µM
  LD50 HTB-54: >100 µM
  GI50: 11.1 µM
184B5
  LD50 184B5: 72.34 µM
  TGI 184B5: 9.64 µM
[1]
  GI50 at 72 h: 1.05 µM
MCF-7
  TGI MCF-7: 4.18 µM
  LD50 MCF-7: 53.49 µM
  GI50: 0.006 µM
MCF-7; listed as benzyl
  TGI MCF-7: 6.19 µM
HT-29
  TGI HT-29: 72.19 µM
  LD50 HT-29: >100 µM
  GI50: 16.2 µM
PC-3 cell line; [2]
  IC50: 2.9 µM
PC-3 cell line; [3]
  IC50: 2.9 µM
CCRF-CEM
  TGI CCRF-CEM: >100 µM
  LD50 CCRF-CEM: >100 µM
  GI50: > 100 µM

## O=C(O)C[Se]C(=O)c1cc(Cl)cc(Cl)c1 [Compound 13, (3,5-dichlorobenzoylselenyl)acetic acid]
PC-3 cell line; [2]
  IC50: > 10 µM
PC-3 cell line; [3]
  IC50: > 10 µM

## COc1cc(OC)cc(C(=O)[Se]CC(=O)O)c1 [Compound 14, (3,5-dimethoxy-benzoylselenyl)acetic acid]
HTB-54
  TGI HTB-54: >100 µM
  LD50 HTB-54: >100 µM
  GI50: 16.8 µM
184B5
  LD50 184B5: 62.55 µM
  TGI 184B5: 8.21 µM
[1]
  GI50 at 72 h: 0.0009 µM
MCF-7
  TGI MCF-7: 6.19 µM
  LD50 MCF-7: 52.65 µM
  GI50: 1.57 µM
MCF-7; listed as 3,5-dimethoxyphenyl
  TGI MCF-7: 4.18 µM
HT-29
  TGI HT-29: 47.42 µM
  LD50 HT-29: >100 µM
  GI50: 5.99 µM
PC-3 cell line; [2]
  IC50: 4 µM
PC-3 cell line; [3]
  IC50: 4 µM
CCRF-CEM
  TGI CCRF-CEM: >100 µM
  LD50 CCRF-CEM: >100 µM
  GI50: > 100 µM

## COc1cc(C(=O)[Se]CC(=O)O)cc(OC)c1OC [Compound 15, (3,4,5-trimethoxybenzoylselenyl)acetic acid]
PC-3 cell line; 72 h exposure, MTT, drug concentrations 2, 5, 7 and 10 μM, NE = no effect is observed
  IC50 PC-3 cell line: suppression of the antitumour activity
PC-3 cell line; [2]
  IC50: > 10 µM
PC-3 cell line; [3]
  IC50: > 10 µM

## O=C(O)C[Se]C(=O)c1ccc2c(c1)OCO2 [Compound 16, (3,4-methylenedioxy-benzoylselenyl) acetic acid]
PC-3 cell line; [2]
  IC50: > 10 µM
PC-3 cell line; [3]
  IC50: > 10 µM

Source: PMC6254723, “Synthesis and Pharmacological Screening of Several Aroyl and Heteroaroyl Selenylacetic Acid Derivatives as Cytotoxic and Antiproliferative Agents” (Molecules, 2009)
